Source: patent US20240307396A1, “COMPOSITIONS AND METHODS FOR TREATING CELIAC DISEASE” (THE REGENTS OF THE UNIVERSITY OF CALIFORNIA, priority 2021, published 2024)
Entries after “also recorded” stand apart in the source; their conditions may differ.

What was measured:
[1] = test system: Type II refractory celiac disease; assay: Trend of pertinent laboratory values in a Type II RCD patient across sequential treatments; assay type: in vivo, human; set-up: CRP: unit not given beside the values; details: for CRP / DGP IgA / TTG IgA: same patient, Budesonide 3 m, Infliximab 1 y, Cladribine 1.5 y, Tofacitinib 2 y
From the text: A person with a past medical history significant for Hashimoto's thyroiditis and positive celiac serology was initially seen for protein-losing enteropathy. Although they had previously been on a gluten-free diet (GFD) for 1 year after first being diagnosed with CD, they re-introduced gluten 3 years before pregnancy without symptoms. They stayed on gluten until one-month postpartum when they developed epigastric pain, nausea, diarrhea with 2-3 loose to watery stools daily, along with significant bilateral lower extremity edema.
At the time of initial hospital admission, they were five months postpartum with the above symptomatology. […] They were discharged to outpatient setting on a GFD and referred to a CD clinic for management.
(§1) During the initial outpatient visit in the CD clinic they were hypotensive with anasarca, diagnosed with celiac crisis, and urgently sent for readmission. They were treated with 72 hours of intravenous solumedrol 20 mg every 12 hours and then transitioned to open-capsule protocol budesonide 3 mg three times a day.
(§2) They were therefore switched to experimental infliximab after a total of 5 months on budesonide.
(§3) The patient was now about 18 months out from diagnosis of Type II RCD, which is associated with about 50% risk of lymphoma in 5 years, so it was imperative to find an effective regimen. […] Discussion of associated adverse events, including thromboembolic ones, was conducted, and pre-treatment labs including lipid profile were done. […] This was the first-time the patient achieved such results in the 2 years since presenting with celiac crisis. […] Their tofacitinib dose will be reduced to 5 mg twice daily to reduce associated adverse events.

[2] = test system: Type II refractory celiac disease; assay: Small bowel biopsy histology (modified Marsh classification) and immunophenotype in the Type II RCD patient; assay type: in vivo, human; details: for Marsh lesions on biopsy: tofacitinib 10 mg twice daily, four months; for Pathology (Marsh lesion): same patient, Budesonide 3 m, Infliximab 1 y, Cladribine 1.5 y, Tofacitinib 2 y
From the text: CD can be characterized using the modified Marsh classification scheme. A subject having a Marsh 0 score would be characterized as either healthy or if previously diagnosed with CD, as “CD in remission”. A Marsh 1 score is non-specific, rarely seen in CD, unless already on a GFD during endoscopy, and may be observed in subjects having dermatitis herpetiformis (DH) or in family members of CD patients, but also with other conditions as infections and adverse response to medications. A Marsh 2 score is rare and is sometimes observed in DH and again in CD patients already on a GFD. Marsh 3 score is characteristic of the spectrum of changes observed in symptomatic CD patients.
as §1, §2, §3

[3] = test system: Type II refractory celiac disease; assay: Endoscopic and clinical response of the Type II RCD patient; assay type: in vivo, human; details: for Endoscopic finding (ulcerative jejunitis / duodenopathy): budesonide 3 months, infliximab 9 months, tofacitinib 10 mg twice daily, four months
Protocol: as §1, §2, §3
However, malabsorption, malignancy, morbidity and mortality are known complications in Type II RCD (Cellier et al. (2000); Ilus et al. (2014); Weiss (2021) Diagnosis and Management of Gluten-Associated Disorders: A clinical casebook. Springer). Currently, the best clinical practice in managing RCD is to advocate for experimental medication treatment in adjunct to a strict gluten-free diet (GFD). Yet the same guidelines acknowledge the absence of treatments with proven efficacy in Type II RCD (Rubio-Tapia et al. (2013) Am. J. Gastroenterol., 108(5):656-677; Al-Toma et al. (2019) United European Gastroenterol. J.: 7(5):583-613). The European guidelines discuss the potential use of AMG714 or JAK inhibitor after corticosteroids, immunomodulators, and chemotherapy in the most refractory of CD cases. […] Additional studies are needed, but the therapy disclosed herein may be utilized in uncomplicated CD or non-responsive CD (NRCD) in combination with a GFD, or even as a substitute to one.

IL-15 = IL-15 (Homo sapiens, UniProt P40933); details: cited from earlier work
IL-15, sequence (P40933 49-162): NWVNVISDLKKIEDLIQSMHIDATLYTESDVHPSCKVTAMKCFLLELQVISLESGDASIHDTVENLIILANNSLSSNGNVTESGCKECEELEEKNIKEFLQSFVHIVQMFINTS

[4] = budesonide 3 months, infliximab 9 months

Compound | CD serologies ([1]; four months after start of tofacitinib 10 mg twice daily) | CRP [1] | DGP IgA [1] | TTG IgA [1] | Marsh lesions on biopsy [2, 4] | Duodenal bulb biopsy histology (H&E) ([2]; during tofacitinib therapy, FIG. 2D) | Pathology (Marsh lesion) [2] | Endoscopic finding (ulcerative jejunitis / duodenopathy) [3] | Symptoms ([3]; during tofacitinib therapy) | T-cell aberrancy / CD8 expression in intraepithelial T-lymphocytes [2, 4] | Resolution of RCD ([3]; one dose of cladribine 10 mg IV) | Results of AMG714 (IL-15)
C[C@@H]1CCN(C(=O)CC#N)C[C@@H]1N(C)c1ncnc2[nH]ccc12 [Tofacitinib, tofacitinib] | normalization of their CD serologies | <0.3 | 70 (H) | 5 | Marsh 1-2 | normal villous architecture with focal areas of crypt hyperplasia and an increase in intraepithelial lymphocytes | Marsh 1-2 | reversed severe therapy-refractory duodenopathy; also recorded: improvement in their duodenopathy | ameliorated symptoms of CD; also recorded: feeling well with minimum symptoms | – | – | –
CCCC1O[C@@H]2C[C@H]3[C@@H]4CCC5=CC(=O)C=C[C@]5(C)[C@H]4[C@@H](O)C[C@]3(C)[C@]2(C(=O)CO)O1 (stereo partly shown) [Budesonide, budesonide] | – | <0.3 | 186.9 | 152.3 | – | – | – | – | – | – | – | –
infliximab | – | <0.3 | 53.9 (H) | 33.1 (H) | Marsh 3A | – | Marsh 3A | resolution of their ulcerative jejunitis | – | unchanged T-cell aberrancy | – | –
Nc1nc(Cl)nc2c1ncn2[C@H]1C[C@H](O)[C@@H](CO)O1 [Cladribine, cladribine] | – | <0.3 | 57.7 (H) | 44.3 (H) | – | – | Marsh 3A | – | – | – | without resolution of their RCD | –
AMG714: anti-IL-15 mAb | – | – | – | – | – | – | – | – | – | – | – | positive yet statistically insignificant results
